Measurements taken from PMC10066365, “Nemacol is a small molecule inhibitor of C. elegans vesicular acetylcholine transporter with anthelmintic potential” (Nature Communications, 2023).
Several values for one entry are separate records, joined by “and”; a condition that tells them apart may be missing. Equal values may be shown once.

What was measured:
C. elegans [1] = assay: C. elegans motor phenotype scoring on solid media (Punc/jerky-unc, coiled, paralyzed), wild-type young adults; type: in vivo, Caenorhabditis elegans; conditions: for atypical locomotion (number of animals) / coiled (number of animals) / no phene (number of animals) / paralyzed (number of animals) / any phene: mean % fraction of young adults exhibiting any phenotype (coiled, jerky-Unc or paralyzed): one hour; for atypical locomotion (number of animals) / coiled (number of animals) / no phene (number of animals) / paralyzed (number of animals): young adults, 20 animals per trial, single technical replicate; for any phene: mean % fraction of young adults exhibiting any phenotype (coiled, jerky-Unc or paralyzed): mean of three biological replicates
[2] = tested on: Dirofilaria immitis microfilariae; assay: Dirofilaria immitis microfilariae immobility assay (DiroImager, 72 h); conditions: for % effect (motility), DIROIM MF: Dirofilaria immitis microfilariae
Outline: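 Motility read after 72 h drug exposure with an image-based high-throughput plate imager, 1% DMSO medium serving as negative control. Missouri-isolate microfilariae, roughly 250 per well, freshly purified and cultured in supplemented RPMI 1640.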

[3] = tested on: Dirofilaria immitis L3/L4; assay: Dirofilaria immitis L3/L4 motility assay (DiroImager, 72 h); conditions: Dirofilaria immitis L4
Pristionchus pacificus = Pristionchus pacificus motor disruption dose-response on solid media, 1 h; conditions: for mean % any phene: any phenotype (coiled, jerky-Unc or paralyzed) at one hour, mean of three biological replicates; for rep 1 atypical locomotion / rep 1 coiled / rep 1 no phene / rep 1 paralyzed / rep 2 atypical locomotion / rep 2 coiled / rep 2 no phene / rep 2 paralyzed / rep 3 atypical locomotion / rep 3 coiled / rep 3 no phene / rep 3 paralyzed: count of 20 animals per trial, one hour
C. elegans [4] = assay: Suppression of trichlorfon (AChE inhibitor) paralysis, double dose-response, scored after 80 min; type: in vivo, Caenorhabditis elegans; conditions: for EC50: Caenorhabditis elegans, ± 95% CI; for % para (percentage of animals able to adopt a clear sinusoidal wave pattern upon touch on the nose): wild-type, bio rep 1-3

Structure (SMILES): O=[N+]([O-])c1ccc(N2CCN(C3CCCCC3)CC2)cc1 [Nemacol-64]
- atypical locomotion (number of animals) (C. elegans [1]; 3.75uM): 18 and 13 and 2 and 10 and 6
- coiled (number of animals) (C. elegans [1]; 3.75uM): 2 and 5 and 16 and 1 and 3
- no phene (number of animals) (C. elegans [1]; 3.75uM): 0 and 2 and 1 and 8 and 11
- paralyzed (number of animals) (C. elegans [1]; 3.75uM): 0 and 2 and 1
- any phene: mean % fraction of young adults exhibiting any phenotype (coiled, jerky-Unc or paralyzed) (C. elegans [1]; 3.75uM): 81.6667%
- atypical locomotion (number of animals) (C. elegans [1]; 15uM): 11 and 10 and 4 and 3 and 16 and 14
- coiled (number of animals) (C. elegans [1]; 15uM): 9 and 8 and 15 and 14 and 3 and 2
- no phene (number of animals) (C. elegans [1]; 15uM): 0 and 2
- paralyzed (number of animals) (C. elegans [1]; 15uM): 0 and 2 and 1 and 3
- any phene: mean % fraction of young adults exhibiting any phenotype (coiled, jerky-Unc or paralyzed) (C. elegans [1]; 15uM): 96.746%
- atypical locomotion (number of animals) (C. elegans [1]; 60uM): 3 and 2 and 8 and 1 and 0
- coiled (number of animals) (C. elegans [1]; 60uM): 14 and 16 and 3 and 0 and 7 and 5
- no phene (number of animals) (C. elegans [1]; 60uM): 0
- paralyzed (number of animals) (C. elegans [1]; 60uM): 3 and 2 and 14 and 12 and 15
- any phene: mean % fraction of young adults exhibiting any phenotype (coiled, jerky-Unc or paralyzed) (C. elegans [1]; 60uM): 100%
- EC50 (C. elegans [1]; Caenorhabditis elegans, any motor phenotype after 1 h on solid media, ± 95% CI, read-out: C. elegans - motor disruption EC50): 1.6 ± 2.8 µM
- % effect (motility), DIROIM MF ([2]; 0.016 µM): 0%
- % effect (motility), DIROIM MF ([2]; 0.08 µM): 0%
- % effect (motility), DIROIM MF ([2]; 0.4 µM): 0%
- % effect (motility), DIROIM MF ([2]; 2 µM): 0%
- % effect (motility), DIROIM MF ([2]; 10 µM): 40%
- EC50 ([2]; Dirofilaria immitis, 72 h, read-out: Dirofilaria immitis filariae EC50): 11 µM
- % effect (motility), DIROIM L4 ([3]; 2 µM): 0%
- % effect (motility), DIROIM L4 ([3]; 10 µM): 0%
- % effect (motility), DIROIM L4 ([3]; 50 µM): 100%
- EC50 (Pristionchus pacificus; Pristionchus pacificus, 1 h, read-out: P. pacificus motor disruption EC50): 14.3 µM
- mean % any phene (Pristionchus pacificus; conc 3.75): 0%
- rep 1 atypical locomotion (Pristionchus pacificus; conc 3.75): 0
- rep 1 coiled (Pristionchus pacificus; conc 3.75): 0
- rep 1 no phene (Pristionchus pacificus; conc 3.75): 20
- rep 1 paralyzed (Pristionchus pacificus; conc 3.75): 0
- rep 2 atypical locomotion (Pristionchus pacificus; conc 3.75): 0
- rep 2 coiled (Pristionchus pacificus; conc 3.75): 0
- rep 2 no phene (Pristionchus pacificus; conc 3.75): 20
- rep 2 paralyzed (Pristionchus pacificus; conc 3.75): 0
- rep 3 atypical locomotion (Pristionchus pacificus; conc 3.75): 0
- rep 3 coiled (Pristionchus pacificus; conc 3.75): 0
- rep 3 no phene (Pristionchus pacificus; conc 3.75): 20
- rep 3 paralyzed (Pristionchus pacificus; conc 3.75): 0
- mean % any phene (Pristionchus pacificus; conc 15): 70.8333%
- rep 1 atypical locomotion (Pristionchus pacificus; conc 15): 10 and 14
- rep 1 no phene (Pristionchus pacificus; conc 15): 7 and 5
- rep 1 paralyzed (Pristionchus pacificus; conc 15): 0
- rep 2 atypical locomotion (Pristionchus pacificus; conc 15): 14 and 12
- rep 2 no phene (Pristionchus pacificus; conc 15): 5 and 8
- rep 2 paralyzed (Pristionchus pacificus; conc 15): 0
- rep 3 atypical locomotion (Pristionchus pacificus; conc 15): 15 and 12
- rep 3 coiled (Pristionchus pacificus; conc 15): 2 and 1
- rep 3 paralyzed (Pristionchus pacificus; conc 15): 0
- mean % any phene (Pristionchus pacificus; conc 60): 100%
- rep 1 atypical locomotion (Pristionchus pacificus; conc 60): 2 and 1
- rep 1 coiled (Pristionchus pacificus; conc 60): 8 and 12
- rep 1 no phene (Pristionchus pacificus; conc 60): 0
- rep 1 paralyzed (Pristionchus pacificus; conc 60): 10 and 7
- rep 2 atypical locomotion (Pristionchus pacificus; conc 60): 0
- rep 2 coiled (Pristionchus pacificus; conc 60): 9 and 11
- rep 2 no phene (Pristionchus pacificus; conc 60): 0
- rep 2 paralyzed (Pristionchus pacificus; conc 60): 11 and 9
- rep 3 coiled (Pristionchus pacificus; conc 60): 10 and 11
- rep 3 no phene (Pristionchus pacificus; conc 60): 0
- rep 3 paralyzed (Pristionchus pacificus; conc 60): 7 and 8

Structure (SMILES): COP(=O)(OC)C(O)C(Cl)(Cl)Cl (centres unmarked) [trichlorfon]
- EC50 (C. elegans [4]; read-out: EC50 of trichlorfon paralysis, nemacol-1 15 μM): 132 ± 34 µM
- EC50 (C. elegans [4]; read-out: EC50 of trichlorfon paralysis, nemacol-1 30 μM): 178 ± 17 µM
- EC50 (C. elegans [4]; read-out: EC50 of trichlorfon paralysis, nemacol-1 60 μM): 138 ± 60 µM
- EC50 (C. elegans [4]; read-out: EC50 of trichlorfon paralysis, trichlorfon alone): 83 ± 7 µM
- EC50 (C. elegans [4]; read-out: EC50 of trichlorfon paralysis, vesamicol 31.3 μM): 102 ± 11 µM
- EC50 (C. elegans [4]; read-out: EC50 of trichlorfon paralysis, vesamicol 62.5 μM): 121 ± 10 µM
- EC50 (C. elegans [4]; read-out: EC50 of trichlorfon paralysis, vesamicol 125 μM): 145 ± 17 µM
- EC50 (C. elegans [4]; read-out: EC50 of trichlorfon paralysis, vesamicol 250 μM): 180 ± 22 µM
- EC50 (C. elegans [4]; read-out: EC50 of trichlorfon paralysis, vesamicol 500 μM): 201 ± 27 µM
- % para (percentage of animals able to adopt a clear sinusoidal wave pattern upon touch on the nose) (C. elegans [4]; trichlorfon 25 uM, Nemacol-1 0 uM (Nemacol-1 series)): 92.8571% and 100%
- % para (percentage of animals able to adopt a clear sinusoidal wave pattern upon touch on the nose) (C. elegans [4]; trichlorfon 25 uM, vesamicol 0 uM (vesamicol series)): 92.8571% and 100%
- % para (percentage of animals able to adopt a clear sinusoidal wave pattern upon touch on the nose) (C. elegans [4]; trichlorfon 50 uM, Nemacol-1 0 uM (Nemacol-1 series)): 85.7143% and 75% and 67.8571%
- % para (percentage of animals able to adopt a clear sinusoidal wave pattern upon touch on the nose) (C. elegans [4]; trichlorfon 50 uM, vesamicol 0 uM (vesamicol series)): 71.4286% and 75% and 96.4286%
- % para (percentage of animals able to adopt a clear sinusoidal wave pattern upon touch on the nose) (C. elegans [4]; trichlorfon 100 uM, vesamicol 0 uM (vesamicol series)): 42.8571% and 50%
- % para (percentage of animals able to adopt a clear sinusoidal wave pattern upon touch on the nose) (C. elegans [4]; trichlorfon 200 uM, Nemacol-1 0 uM (Nemacol-1 series)): 7.143% and 3.571%
- % para (percentage of animals able to adopt a clear sinusoidal wave pattern upon touch on the nose) (C. elegans [4]; trichlorfon 400 uM, Nemacol-1 0 uM (Nemacol-1 series)): 0%
- % para (percentage of animals able to adopt a clear sinusoidal wave pattern upon touch on the nose) (C. elegans [4]; trichlorfon 400 uM, vesamicol 0 uM (vesamicol series)): 0% and 3.571%
- % para (percentage of animals able to adopt a clear sinusoidal wave pattern upon touch on the nose) (C. elegans [4]; trichlorfon 800 uM, Nemacol-1 0 uM (Nemacol-1 series)): 0%
- % para (percentage of animals able to adopt a clear sinusoidal wave pattern upon touch on the nose) (C. elegans [4]; trichlorfon 800 uM, vesamicol 0 uM (vesamicol series)): 0%
